Test results as given in PMC5566978, “Human Leukocyte Antigen (HLA)-DRB1*15:01 and HLA-DRB5*01:01 Present Complementary Peptide Repertoires” (Frontiers in Immunology, 2017).
Where no end group is shown, it is not given here.

How the values were obtained:
[1] = target: recombinant DR2b (DRA1*01:01/DRB1*15:01) (Homo sapiens, UniProt P01903+P01911); experiment: Competition peptide-binding assay to recombinant DR2b; settings: competition with 1 µM biotinylated modified GAD555-567 peptide, wells coated with HLA-DR2b, europium-streptavidin time resolved fluorescence
Procedure: (§1) The experimental affinity of different peptides to HLA-DR molecules was determined as previously described ([31]). Briefly, recombinant DR2b (DRA1*01:01/DRB1*15:01) and DR2a (DRA1*01:01/DRB5*01:01) proteins were used for peptide-binding assays. Increasing concentrations of each non-biotinylated test peptide were incubated in competition with 1 µM of the biotinylated GAD555-567 peptide ([…], modified from […] to bind to DRB1*15:01 and DRB5*01:01 in a single unambiguous register) in wells coated with HLA-DR2a or HLA-DR2b. After washing, residual biotinylated reference peptide was labeled using europium conjugated streptavidin (Perkin Elmer) and quantified using a Victor3 D time resolved fluorometer (Perkin Elmer). Peptide-binding curves were simulated by non-linear regression with Prism Software (version 4.03, GraphPad Software Inc.) using a sigmoidal dose–response curve. IC50 binding values were calculated from the resulting curves as the peptide concentration needed for 50% inhibition of reference peptide binding. Equivalent amounts of purified HLA-DR protein were plated on each plate, but similar amounts of total protein can have different levels of activity. Thus, different preparations of protein frequently give different levels of maximum counts (presumably based on differences in purity and the proportion of the protein that is functional). Indeed differences between different preparations of the same HLA-DR protein can be observed.
(§2) Figure 4 Experimental binding affinity of peptides sequenced from MGAR and (A) Binding to DR2a or (B) Binding to DR2b. Increased concentration of the peptides were incubated in wells coated with recombinant human leukocyte antigen (HLA)-DR2a or HLA-DR2b in competition with 1 µM biotinylated modified GAD555-567 peptide ([…], modified from […] to bind to DRB1*15:01 and DRB5*01:01 in a single unambiguous register) to generate binding curves. After washing, residual biotinylated reference peptide was labeled using europium-conjugated streptavidin and quantified. The Y-axis depicts raw europium counts, which is proportional to the amount of residual biotinylated peptide that remains bound to HLA class II. White-filled symbols represent peptides eluted from DR2a. Black-filled symbols represent peptides eluted from DR2b.

[2] = target: recombinant DR2a (DRA1*01:01/DRB5*01:01) (Homo sapiens, UniProt P01903+Q30154); experiment: Competition peptide-binding assay to recombinant DR2a; settings: competition with 1 µM biotinylated modified GAD555-567 peptide, wells coated with HLA-DR2a, europium-streptavidin time resolved fluorescence
Procedure: as §1, §2

Row | Sequence | IC50 [1] | IC50 [2] | BINDING IC50 DR2a [2]
1 | QKKEIHLYQTFVVQLQDPREP | > 50 µM | > 50 µM | –
2 | LPSEKAIFLFVDKTVPQS | – | > 50 µM | non-detectable affinity
3 | QKKEIHLYQTFVVQ | > 50 µM | > 50 µM | –
4 | ELEELRAEQQRLKSQDL | > 50 µM | – | –
5 | QKKEIHLYQTFVVQLQDPR | > 50 µM | > 50 µM | –
6 | SQAEFEKAAEEVRHL | > 50 µM | 5.8 µM | –
7 | LEEFGRFASFEAQG | > 50 µM | > 50 µM | –
8 | QTKEFQVLKSLGKLAMG | > 50 µM | – | –
9 | QKKEIHLYQTFVVQL | > 50 µM | > 50 µM | –
10 | LEEFGRFASFEAQGA | > 50 µM | > 50 µM | –
